Data set [1] in a line: Stability by NMR analyses after heating. In kind it is physicochemical. As to conditions: after heating at 45 and 100 °C for 8 and 2 h, respectively. As for the experimental part:
Based on cellular results, hybrids 9c, 9f, 10b, and 10f were selected for further studies. Their stability was evaluated by NMR analyses after heating them at 45 and 100 °C for 8 and 2 h, respectively (Supplementary Materials S1).

The test system of another data set is C3PV. In words: MTT cell viability assay on normal fibroblasts C3PV. As to conditions: 24 h treatment, triplicates, read-out: IC50 (µM ± SD) C3PV. Format: cell-based, human. The protocol: (§1) The primary human healthy fibroblast C3PV cell line was grown in a culture medium containing 50% Dulbecco Modified Medium (DMEM) and 50% Ham’s F10 supplemented with 10% Fetal Bovine Serum (FBS). […] To all growing media were added 1% Pen/Strep and 1% Glutamine.
To study the effect of artemisinin derivatives on cell viability, MTT assay was performed. Briefly, C3PV, WM115, and WM266 cell lines were seeded in 96-well plates (3000 cells/well in 100 μL of medium) 24 h before treatment and incubated overnight to allow for cell adherence. […] The analyses of cell viability were performed at the end of the treatment. Triplicates were made in all experiments. After 24 h of treatment with newly synthesized compounds, the culture medium was replaced with a solution containing 0.5 mg/mL of MTT. After 3 h of incubation in an incubator, the medium was removed, and a lysis solution (10% SDS, 0.6% acetic acid in DMSO) was added to dissolve the formazan crystals. Optical density measurements were performed with a microplate reader EPOCH/2 (Biotek) with 630 nm (background) and a 570 nm filters.
(§2) The IC50 values were determined via non-linear regression, using the GraphPad Prism software package version 8 (GraphPad Software, San Diego, CA, USA). Results were expressed as means of IC50 values ± SD. The TSI values were calculated using the following formula: […]
Background: Formazan colour is commonly taken as a measure of viable cells.

For a further data set, the system named is WM115. In words: MTT cell viability assay on primary melanoma cell line WM115. Format: cell-based, human. As to conditions: for IC50: primary melanoma WM115, MTT, 24 h treatment, triplicates, read-out: IC50 (µM ± SD) WM115; for TSI WM115: tumor selectivity index = IC50 on C3PV / IC50 on WM115. The protocol:
as §1
(§3) To study the effect of artemisinin derivatives on cell viability, MTT assay was performed. Briefly, C3PV, WM115, and WM266 cell lines were seeded in 96-well plates (3000 cells/well in 100 μL of medium) 24 h before treatment and incubated overnight to allow for cell adherence. Afterward, the medium was replaced with a fresh one containing the appropriate dose of newly synthesized compounds (doses ranging from 0.01 to 1 μM were used for 24 h). The analyses of cell viability were performed at the end of the treatment. Triplicates were made in all experiments. After 24 h of treatment with newly synthesized compounds, the culture medium was replaced with a solution containing 0.5 mg/mL of MTT. After 3 h of incubation in an incubator, the medium was removed, and a lysis solution (10% SDS, 0.6% acetic acid in DMSO) was added to dissolve the formazan crystals. Optical density measurements were performed with a microplate reader EPOCH/2 (Biotek) with 630 nm (background) and a 570 nm filters.
as §2

The test system of data set [2] is WM266. In words: Cell viability assay in the presence or absence of DFO on WM266. Format: cell-based. As to conditions: Homo sapiens, treatment time 48 h. The text has this:
To obtain information about the mode of action of compounds 9c, 9f, 10b, and 10f, we repeated the cell viability assays on the metastatic cancer line WM266 in the presence of the Fe^2+ chelating agent deferoxamine (DFO). As mentioned above, Fe^2+ ions trigger endoperoxide bridge opening of the sesquiterpene counterpart by Fenton-like mechanisms, leading to the formation of carbon- and oxygen-centered radicals. Usually, this in cell formation of single-electron reactive species seems to be responsible for the biological activity of ART and its semisynthetic and hybrid derivatives. Sequestration of Fe^2 by DFO generally reduces the efficacy of the compounds studied.
DFO was used to study the mode of action of compounds 9c, 9f, 10b, and 10f on WM266 cell line. Twenty-four hours before treatment, cells were seeded in 96-well plates and incubated overnight. Then, cells were pre-treated with 20 μM of DFO for 1 h. After this time, two washes with PBS were performed, and, subsequently, fresh medium containing different doses of the opportune compound was added for 48h. The analyses of cell viability were performed at the end of treatment, and triplicates were made in all experiments.

The subject of data set [3] is WM266. In words: MTT cell viability assay on metastatic melanoma cell line WM266. In kind it is cell-based, human. As to conditions: for IC50: Homo sapiens; for TSI WM266: tumor selectivity index = IC50 on C3PV / IC50 on WM266. As for the experimental part:
as §1, §3, §2

Another data set relates to melanoma. As to conditions: metastatic melanoma drug; cited from earlier work.
The mark [4] stands for this setting: WM266, pre-treated with 20 μM DFO for 1 h, read-out: IC50 ± SD WM266 with DFO.
[5] abbreviates: WM266, without DFO, read-out: IC50 ± SD WM266 without DFO.
[6] abbreviates: WM266, 24 h, metastatic melanoma WM266, MTT, 24 h treatment, triplicates, read-out: IC50 (µM ± SD) WM266.
The mark [7] stands for this setting: WM266, reference hybrid on WM266, as printed in Table 2, read-out: IC50 ± SD R.H.

Where two headings read alike, the source gives them in different places. Where only a bound is given, the exact number is not on record here.

Regarding `CC(C)=CCCC(C)CCO[C@H]1O[C@@H]2O[C@@]3(C)CC[C@H]4[C@H](C)CC[C@@H]([C@H]1C)[C@@]24OO3` (stereo partly drawn) [Hybrid 9c], the “decomposition by 1H NMR” value in data set [1] is given as “less than 5%”. For the same molecule, the IC50 (usually the concentration that inhibits the measured activity by half) in the data set with C3PV (Homo sapiens, C3PV, 24 h) was 364 ± 7.9 µM; in the data set on WM115 (Homo sapiens, WM-115, 24 h) it was 2.1 ± 0.3 µM; with WM266 [2] (setting [4]) it was 12700 ± 300 nM; in the data set with WM266 [2] (setting [5]) it was 1400 ± 560 nM; in the data set with WM266 [3] (setting [6]), 1.4 ± 0.56 µM; with WM266 [3] (setting [7]) it was 1.4 ± 0.56 µM. In the data set with WM115, the “TSI WM115” value is recorded as 173.4. For the same molecule, in the data set on WM266 [3], the “TSI WM266” value was determined as 260.1.
Regarding `CC(C)=CCCC(C)=CCOC1OC2OC3(C)CCC4C(C)CCC(C1C)C24OO3` (stereo not drawn) [Hybrid 9f], the “decomposition by 1H NMR” value in data set [1] is recorded as “less than 5%”. Also, the half-inhibitory concentration (IC50) with C3PV (Homo sapiens, C3PV, 24 h) is 87.3 ± 2.5 µM; with WM115 (Homo sapiens, WM-115, 24 h) it was 3 ± 0.4 µM; in the data set with WM266 [2] (setting [4]) it was 132700 ± 400 nM; in the data set on WM266 [2] (setting [5]), 1900 ± 500 nM; in the data set with WM266 [3] (setting [6]), 1.9 ± 0.5 µM; in the data set with WM266 [3] (setting [7]), 1.9 ± 0.5 µM. Also, the “TSI WM115” value with WM115 is 29.1. Besides, the “TSI WM266” value with WM266 [3] amounted to 45.9.
Turning to `C=C(C)C1CC=C(COC(=O)CCC(=O)OC2OC3OC4(C)CCC5C(C)CCC(C2C)C35OO4)CC1` (stereo not drawn) [Hybrid 10b], the “decomposition by 1H NMR” value in data set [1] is given as “less than 5%”. In addition, the IC50 in the data set with C3PV (Homo sapiens, C3PV, 24 h) was found to be 20.3 ± 5.5 µM; with WM115 (Homo sapiens, WM-115, 24 h), 0.03 ± 0.01 µM; with WM266 [2] (setting [4]) it was 310 ± 100 nM; in the data set with WM266 [2] (setting [5]), 20 ± 10 nM; in the data set with WM266 [3] (setting [6]), 0.02 ± 0.01 µM; with WM266 [3] (setting [7]), 0.02 ± 0.01 µM. Also, the “TSI WM115” value with WM115 was determined as 676.7. Also, the “TSI WM266” value with WM266 [3] was 1015.0.
In the case of `CC(C)=CCCC(C)=CCOC(=O)CCC(=O)OC1OC2OC3(C)CCC4C(C)CCC(C1C)C24OO3` (stereo not drawn) [Hybrid 10f], the “decomposition by 1H NMR” value in data set [1] is listed as “less than 5%”. Moreover, the concentration for half-maximal inhibition (IC50) in the data set with C3PV came out at 7.9 ± 4.5 µM; with WM115 it was 0.4 ± 0.04 µM; in the data set on WM266 [2] (setting [4]), 500 ± 100 nM; in the data set with WM266 [2] (setting [5]), 90 ± 30 nM; with WM266 [3] (setting [7]), 0.09 ± 0.03 µM. Besides, the “TSI WM115” value in the data set on WM115 came out at 19.8. For the same molecule, the “TSI WM266” value in the data set on WM266 [3] turned out to be 87.8.
For `Cn1nnc2c(C(N)=O)ncn2c1=O` [temozolomide], the half-maximal inhibitory concentration (IC50) in the data set on melanoma was less than 50000 nM.

These data come from publication PMC11279807, “Modulation of the Antimelanoma Activity Imparted to Artemisinin Hybrids by the Monoterpene Counterpart” (Molecules, 2024).
